For data set [1], the system named is Cpn10 promoter. As to the kind of experiment: Cpn10 promoter luciferase reporter (pCAT/LUC-CPN) in RAW264.7 cells. The data set is classed as cell-based, mouse. Conditions: for up-regulation of the Cpn10 promoter: optimal agonist concentrations (FIG. 18H): IFNγ 1 ng/ml, IL-1β 1 ng/ml, TNF-α 100 ng/ml. An excerpt: Reagents. Recombinant human Cpn10 was produced to GMP specifications by BresaGen Limited (Adelaide, Aus) essentially as described previously (Johnson, B. 2005. J. Biol Chem 280:4037-4047). […] For FACS analysis, a cysteine residue was engineered onto the C-terminus of Cpn10 and labeled with AlexFluor647 (Invitrogen) according to manufacturer's instructions. […] TLR ligands and cytokines included: E. coli LPS (strain 055:B5, Sigma), E. coli ultra-pure LPS (0111:B4 Sigma), S. aureus LTA, B. subtilis LTA, S. aureus PGN, B. subtilis PGN, zymosan cell wall from S. cerevisae, poly(I:C), imiquimod R837, CpG ODN 1826 and ODN2216, GpC ODN1826 control, (all from Invivogen, San Diego, Calif.), recombinant mouse IFNγ, (Chemicon), IL-1β (PeproTech), and recombinant human TNF-α (Invivogen). Antibodies. Rabbit polyclonal antibodies were raised against Cpn10 and affinity purified at CBio. Cytometric Bead Array (CBA) Flex Sets recognizing phosphorylated signal proteins (both human and mouse) including ERK1/2 (T202/Y204), JNK1/2 (T183/Y185), p38/MAPKinase (T180/Y182), CD14, and FcBlock (CD16/CD32) were from BD. Transfection, Cell Stimulation and Promoter analysis. The pCAT/LUC-CPN promoter construct was provided by M. Ryan and N. Hoogenraad (La Trobe University, Melbourne). RAW264.7 cells were transiently transfected using GeneJuice (Novagen). After 24 h cells were harvested and cell viability assessed by trypan blue dye exclusion. Cells were seeded into 24-well plates and heat shocked (43° C. for 15 min (mild), 30 min (moderate), or 60 min (severe)) followed by recovery at 37° C. or stimulated after 18 h. Cells were washed, harvested in Cell Culture Lysis Reagent (CCLR, Promega) and firefly luciferase signal measured using the Luciferase Assay System (Promega) and the Wallac Victor 2 Multilabel Counter (Perkin-Elmer). Real-time PCR. RAW264.7 cells were seeded at 2.5×10^5/ml in sterile 24 well plates and adhered for 16-20 hrs prior to stimulation. […] Cells were assessed for viability, pooled per condition (n=4), pelleted by centrifugation and resuspended in CCLR.
(In general: In a reporter assay the amount or activity of a reporter protein is the signal.)

Data set [2] has as its target T1, TLR3 (Mus musculus, UniProt Q99MB1).
T1 construct: Experiments were conducted in the murine macrophage cell line RAW264.7; endogenous in cells; host or cells: RAW264.7 / RAW264-pNifty2-LUC
Briefly: IFNβ ELISA of supernatants of RAW264.7 cells stimulated with polyI:C. The data set is classed as cell-based. The procedure:
Briefly, RAW264.7 cells were seeded at 2×10^5 cells/well in 24 well plates and cultured overnight (37° C., 5% CO2). Recombinant human Cpn10 (at concentrations between 10 μg/ml and 200 μg/ml) or buffer was added to cells in duplicate for 2 hours followed by the addition of polyI:C (tlrl-pic, InvivoGen, San Diego, Calif.) to a final concentration of 100 μg/ml. After 24 hours, supernatants were collected and analysed for IFNβ levels using a specific ELISA according to manufacturer's instructions (Cat No. 42400-1, R&D Systems Inc, Minneapolis, Minn.).

Data set [3] concerns RAW264.7 cells.
Protocol: (§2) For the data shown in FIG. 34, PolyI:C (supplied by Invivogen) was dissolved in sterile saline at 5 mg/ml stored frozen at −20° C. Vials were thawed and diluted into medium. For buffer controls, the same volume and sterile saline was added to cell culture wells. […] RAW264.7 cells were grown as adherent cultures in flasks and scraped (i.e. not trypisinised) prior to seeding into 96-well plates. HeLa cells were trypsinised in the standard way prior to seeding. Cells were seeded in duplicate in a 96-well plate (5×10^3 for RAW264.7 cells and 10^4 for HeLa cells in 50 μl medium per well). After 4 h, Cpn10 was added (in 50 μl diluted in medium) and after a further 30 mins polyI:C was added (in 50 μl diluted in medium). The cells were then incubated overnight in the 96-well plates and then RRV was added (MOI=1 for RAW264.7 cells, and MOI=10 for HeLa cells in 50 μl). After 3 days, the cells were fixed, stained with crystal violet, washed, dried and dye extracted with 100% methanol and read at A595 nm as described (Antalis et al, J Exp Med 1998, 187(11):1799). […] Titrations were established to determine the dose required for induction of anti-viral resistance for RAW264.7 cells and HeLa cells.
Data set [4] deals with HeLa cells.
Protocol: as §2
Data set [5] concerns RAW264.7 cells. Briefly: ELISA of endogenous Cpn10 in RAW264.7 culture supernatants and cell lysates. The data set is classed as cell-based, mouse. An excerpt: Reagents. Recombinant human Cpn10 was produced to GMP specifications by BresaGen Limited (Adelaide, Aus) essentially as described previously (Johnson, B. 2005. J. Biol Chem 280:4037-4047). […] For FACS analysis, a cysteine residue was engineered onto the C-terminus of Cpn10 and labeled with AlexFluor647 (Invitrogen) according to manufacturer's instructions. […] TLR ligands and cytokines included: E. coli LPS (strain 055:B5, Sigma), E. coli ultra-pure LPS (0111:B4 Sigma), S. aureus LTA, B. subtilis LTA, S. aureus PGN, B. subtilis PGN, zymosan cell wall from S. cerevisae, poly(I:C), imiquimod R837, CpG ODN 1826 and ODN2216, GpC ODN1826 control, (all from Invivogen, San Diego, Calif.), recombinant mouse IFNγ, (Chemicon), IL-1β (PeproTech), and recombinant human TNF-α (Invivogen). Antibodies. Rabbit polyclonal antibodies were raised against Cpn10 and affinity purified at CBio. […] After 24 h cells were harvested and cell viability assessed by trypan blue dye exclusion. […] Cells were washed, harvested in Cell Culture Lysis Reagent (CCLR, Promega) and firefly luciferase signal measured using the Luciferase Assay System (Promega) and the Wallac Victor 2 Multilabel Counter (Perkin-Elmer). […] Cells were assessed for viability, pooled per condition (n=4), pelleted by centrifugation and resuspended in CCLR.
(ELISA stands for enzyme-linked immunosorbent assay.)

Data set [6] relates to Cpn10 mRNA. Briefly: Cpn10 mRNA real-time PCR in RAW264.7 cells. Format: cell-based, mouse. Conditions: maximal induction at 18 h, near baseline by 24 h. (In qPCR the cycle at which signal appears reflects the starting amount.)
In data set [7] the test system is GM1. As to the kind of experiment: FRET with GM1 (lipid rafts) on MonoMac 6 cells. Conditions: donor GM1. Format: binding, human. The procedure:
(§1) Cell labeling for FRET. MonoMac 6 cells (a human monocytic cell line) were labeled with 100 μl of a mixture of donor conjugated antibody (Cy3) and acceptor conjugated antibody (Cy5). For labelling of Cpn10, an anti-Cpn10 rabbit polyclonal antibody was used. The cells were rinsed twice in PBS/0.02% BSA, prior to fixation with 4% formaldehyde for 15 min. The cells were fixed in order to prevent potential re-organisation of the proteins during the course of the experiment. Confocal imaging. Cells were imaged on a Carl Zeiss, Inc. LSM510 confocal microscope (with an Axiovert 200 fluorescent microscope) using a 1.4 NA 63× Zeiss objective. The images were analysed using LSM 2.5 image analysis software (Carl Zeiss, Inc.). Cy3 and Cy5 were detected using the appropriate filter sets. Using typical exposure times for image acquisition (less than 5 s), no fluorescence was observed from a Cy3-labelled specimen using the Cy5 filters, nor was Cy5 fluorescence detected using the Cy3 filter sets. FRET measurements. FRET is a non-invasive imaging technique used to determine molecular proximity. […]
In the present study, FRET was measured using a method as previously described (Kenworthy and Edidin (1998) Journal of Cell Biology 142: 69-84; Kenworthy and Edidin (1998) in Gelb, M. H. (Ed.) Methods in molecular Biology. Humana Press Inc, Totowa, N.J. pp 37-49). […]

The target of data set [8] is T2, CD14 (Homo sapiens, UniProt P08571).
T2 construct: MonoMac 6 cells (a human monocytic cell line); endogenous in cells; host or cells: MonoMac 6
T2 sequence (P08571 20-345): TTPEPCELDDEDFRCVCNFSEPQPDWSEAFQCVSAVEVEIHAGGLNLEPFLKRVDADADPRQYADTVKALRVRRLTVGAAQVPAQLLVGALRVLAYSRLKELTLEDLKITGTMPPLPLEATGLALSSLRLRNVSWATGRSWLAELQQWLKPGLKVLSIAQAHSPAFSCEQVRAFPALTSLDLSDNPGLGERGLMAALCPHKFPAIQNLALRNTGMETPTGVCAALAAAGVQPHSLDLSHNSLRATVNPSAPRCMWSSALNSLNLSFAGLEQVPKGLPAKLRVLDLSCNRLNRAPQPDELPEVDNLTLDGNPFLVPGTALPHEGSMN
Briefly: FRET with CD14 on MonoMac 6 cells. Format: binding. As for the experimental part: as §1, with “used. […]” for “used. The cells were rinsed twice in PBS/0.02% BSA, prior to fixation with 4% formaldehyde for 15 min.”, “measurements. […] In the present study,” for “measurements.”, “FRET was measured using” for “FRET is”, “a method as previously described (Kenworthy and […] (1998) Journal of Cell Biology 142: 69-84; Kenworthy and […] (1998) in Gelb, M. H. (Ed.) Methods in” for “a non-invasive imaging technique used to determine”, “molecular Biology. Humana Press Inc, Totowa, N.J. pp 37-49). Briefly, samples were labeled with donor and acceptor conjugated antibodies, and energy transfer was detected as an increase in donor fluorescence (dequenching) after complete photobleaching of the acceptor molecule.” for “molecular proximity.”

Data set [9] has as its target T3, TLR4 (Homo sapiens, UniProt O00206).
T3 construct: endogenous in cells; host or cells: freshly isolated human monocytes; human monocyte-derived DC
Briefly: FRET with TLR4 on MonoMac 6 cells. The data set is classed as binding. As for the experimental part: as §1, with “used. […]” for “used. The cells were rinsed twice in PBS/0.02% BSA, prior to fixation with 4% formaldehyde for 15 min.”, “measurements. […] In the present study,” for “measurements.”, “FRET was measured using” for “FRET is”, “a method as previously described (Kenworthy and […] (1998) Journal of Cell Biology 142: 69-84; Kenworthy and […] (1998) in Gelb, M. H. (Ed.) Methods in” for “a non-invasive imaging technique used to determine”, “molecular Biology. Humana Press Inc, Totowa, N.J. pp 37-49). Briefly, samples were labeled with donor and acceptor conjugated antibodies, and energy transfer was detected as an increase in donor fluorescence (dequenching) after complete photobleaching of the acceptor molecule.” for “molecular proximity.”

Data set [10] has as its system Hsp70. Briefly: FRET with Hsp70 on MonoMac 6 cells. The data set is classed as binding, human. The procedure:
as §1, with “used. […]” for “used. The cells were rinsed twice in PBS/0.02% BSA, prior to fixation with 4% formaldehyde for 15 min.”, “measurements. […] In the present study,” for “measurements.”, “FRET was measured using” for “FRET is”, “a method as previously described (Kenworthy and […] (1998) Journal of Cell Biology 142: 69-84; Kenworthy and […] (1998) in Gelb, M. H. (Ed.) Methods in” for “a non-invasive imaging technique used to determine”, “molecular Biology. Humana Press Inc, Totowa, N.J. pp 37-49). Briefly, samples were labeled with donor and acceptor conjugated antibodies, and energy transfer was detected as an increase in donor fluorescence (dequenching) after complete photobleaching of the acceptor molecule.” for “molecular proximity.”

For data set [11], the system named is Hsp90. Briefly: FRET with Hsp90 on MonoMac 6 cells. The data set is classed as binding, human. The procedure: as §1, with “used. […]” for “used. The cells were rinsed twice in PBS/0.02% BSA, prior to fixation with 4% formaldehyde for 15 min.”, “measurements. […] In the present study,” for “measurements.”, “FRET was measured using” for “FRET is”, “a method as previously described (Kenworthy and […] (1998) Journal of Cell Biology 142: 69-84; Kenworthy and […] (1998) in Gelb, M. H. (Ed.) Methods in” for “a non-invasive imaging technique used to determine”, “molecular Biology. Humana Press Inc, Totowa, N.J. pp 37-49). Briefly, samples were labeled with donor and acceptor conjugated antibodies, and energy transfer was detected as an increase in donor fluorescence (dequenching) after complete photobleaching of the acceptor molecule.” for “molecular proximity.”

Data set [12] deals with T4, CXCR4 (Homo sapiens, UniProt P61073).
T4 construct: MonoMac 6 cells (a human monocytic cell line); endogenous in cells; host or cells: MonoMac 6
T4 sequence (P61073 whole entry): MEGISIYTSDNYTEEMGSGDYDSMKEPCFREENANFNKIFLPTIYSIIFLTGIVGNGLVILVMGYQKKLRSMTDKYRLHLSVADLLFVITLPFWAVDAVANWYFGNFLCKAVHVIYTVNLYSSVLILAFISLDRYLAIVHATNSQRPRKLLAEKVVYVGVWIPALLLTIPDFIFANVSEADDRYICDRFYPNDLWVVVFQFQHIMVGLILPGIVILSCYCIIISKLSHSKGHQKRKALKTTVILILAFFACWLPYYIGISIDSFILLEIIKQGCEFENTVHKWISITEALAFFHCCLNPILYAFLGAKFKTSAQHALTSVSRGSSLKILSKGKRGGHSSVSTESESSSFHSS
As to the kind of experiment: FRET with CXCR4 on MonoMac 6 cells. Format: binding. As for the experimental part: as §1, with “used. […]” for “used. The cells were rinsed twice in PBS/0.02% BSA, prior to fixation with 4% formaldehyde for 15 min.”, “measurements. […] In the present study,” for “measurements.”, “FRET was measured using” for “FRET is”, “a method as previously described (Kenworthy and […] (1998) Journal of Cell Biology 142: 69-84; Kenworthy and […] (1998) in Gelb, M. H. (Ed.) Methods in” for “a non-invasive imaging technique used to determine”, “molecular Biology. Humana Press Inc, Totowa, N.J. pp 37-49). Briefly, samples were labeled with donor and acceptor conjugated antibodies, and energy transfer was detected as an increase in donor fluorescence (dequenching) after complete photobleaching of the acceptor molecule.” for “molecular proximity.”

T3 sequence (O00206 24-839): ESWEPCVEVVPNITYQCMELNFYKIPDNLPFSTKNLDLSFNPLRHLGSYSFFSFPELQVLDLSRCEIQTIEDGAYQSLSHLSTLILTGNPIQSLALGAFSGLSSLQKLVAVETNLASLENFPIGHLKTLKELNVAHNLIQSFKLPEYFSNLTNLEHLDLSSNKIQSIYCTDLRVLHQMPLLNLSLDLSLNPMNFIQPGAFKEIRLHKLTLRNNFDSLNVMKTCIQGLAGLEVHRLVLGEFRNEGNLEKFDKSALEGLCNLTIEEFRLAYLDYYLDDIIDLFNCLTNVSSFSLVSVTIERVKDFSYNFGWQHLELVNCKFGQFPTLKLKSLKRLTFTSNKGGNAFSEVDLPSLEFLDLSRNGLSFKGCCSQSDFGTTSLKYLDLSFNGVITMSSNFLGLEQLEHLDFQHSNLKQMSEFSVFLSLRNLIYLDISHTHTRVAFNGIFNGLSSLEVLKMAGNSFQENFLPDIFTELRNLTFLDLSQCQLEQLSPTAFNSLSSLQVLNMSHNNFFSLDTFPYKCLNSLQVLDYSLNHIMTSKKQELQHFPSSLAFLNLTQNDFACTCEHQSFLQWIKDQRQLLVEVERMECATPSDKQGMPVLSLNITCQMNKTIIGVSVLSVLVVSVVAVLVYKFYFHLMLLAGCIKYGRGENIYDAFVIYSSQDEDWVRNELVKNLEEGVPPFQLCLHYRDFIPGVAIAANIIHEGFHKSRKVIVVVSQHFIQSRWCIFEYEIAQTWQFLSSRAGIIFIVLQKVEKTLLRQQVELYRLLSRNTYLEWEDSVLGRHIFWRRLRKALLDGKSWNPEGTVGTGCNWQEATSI
T1 sequence (Q99MB1 26-905): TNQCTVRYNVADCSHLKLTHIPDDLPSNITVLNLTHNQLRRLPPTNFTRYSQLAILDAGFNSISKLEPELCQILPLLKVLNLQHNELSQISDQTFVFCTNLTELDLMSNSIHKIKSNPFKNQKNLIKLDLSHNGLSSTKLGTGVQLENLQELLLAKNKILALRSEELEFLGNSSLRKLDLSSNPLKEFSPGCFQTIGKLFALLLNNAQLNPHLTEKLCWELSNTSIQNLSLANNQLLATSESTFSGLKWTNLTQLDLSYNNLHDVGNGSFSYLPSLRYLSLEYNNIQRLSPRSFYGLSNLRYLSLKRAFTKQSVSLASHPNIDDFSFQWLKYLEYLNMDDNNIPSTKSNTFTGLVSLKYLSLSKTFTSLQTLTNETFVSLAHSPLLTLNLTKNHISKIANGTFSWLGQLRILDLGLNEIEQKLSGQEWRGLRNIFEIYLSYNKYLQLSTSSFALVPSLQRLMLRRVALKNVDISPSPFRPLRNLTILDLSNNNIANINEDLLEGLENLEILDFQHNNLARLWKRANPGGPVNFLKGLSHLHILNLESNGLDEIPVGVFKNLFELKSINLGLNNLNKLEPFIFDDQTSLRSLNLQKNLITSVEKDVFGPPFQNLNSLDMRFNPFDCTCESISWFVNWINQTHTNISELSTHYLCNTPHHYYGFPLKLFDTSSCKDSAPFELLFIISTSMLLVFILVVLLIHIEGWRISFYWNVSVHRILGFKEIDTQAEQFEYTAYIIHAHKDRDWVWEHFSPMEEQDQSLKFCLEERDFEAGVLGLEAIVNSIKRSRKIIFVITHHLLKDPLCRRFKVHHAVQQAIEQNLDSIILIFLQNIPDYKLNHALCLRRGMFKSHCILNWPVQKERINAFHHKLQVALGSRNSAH

Take TNF-α: the “up-regulation of the Cpn10 promoter” value in data set [1] is recorded as “did not induce substantial up-regulation”.

On to “polyinosinic-polysytidilic acid [polyI:C]”, for which the “IFNβ released into culture supernatants” value in data set [2] (polyI:C at 100 μg/ml, absence of Cpn10) worked out at 292 pg/mL. Besides, the “concentrations showing clear signs of toxicity” value in data set [3] lay in the range of 5 to 10 µg/mL. The toxicity result in data set [4] is “No such toxicity was observed”.

“IL-1β: IL-1β (PeproTech), non-TLR agonist”: the “up-regulation of the Cpn10 promoter” value in data set [1] is listed as “did not induce substantial up-regulation”.

As to lipoteichoic acid [LTA], the “induction of the Cpn10 promoter” value in data set [1] (24 hour stimulation, constant at 30 hours) is reported as 2.7 fold. The “intracellular Cpn10 levels in cell lysates” value in data set [5] (LTA treated vs control cells) is given as “little change in intracellular Cpn10 levels”. The “increase in soluble (extracellular) Cpn10 in culture supernatants over unstimulated control cells” value in [5] (after 30 h, 100 μg/ml LTA) is given as 3 fold. Also, the “induction of Cpn10 mRNA” value in [6] is reported as “concentration-dependent induction of Cpn10 mRNA”.

In the case of “GroES: E. coli homologue of Cpn10, routinely used as a negative control”, the “effect on polyI:C-induced IFNβ levels in culture supernatants” value in [2] (polyI:C stimulation, 10-200 μg/ml protein) is listed as “did not modulate the production of IFN-β”. Moreover, the “E ± ΔE (%) energy transfer efficiency” value in data set [7] (MM6 cells stimulated with LPS) is listed as 6 ± 1.0%; in data set [7] (Unstimulated MM6 cells), 7 ± 1.5%; in data set [8] (MM6 cells stimulated with LPS), 7 ± 0.5%; in data set [8] (Unstimulated MM6 cells) it was 8 ± 1.0%; in data set [9] (MM6 cells stimulated with LPS), 8 ± 1.0%; in data set [9] (Unstimulated MM6 cells), 7 ± 1.5%. Also, the “E ± ΔE (%) energy transfer efficiency” value in data set [10] (MM6 cells stimulated with LPS) came out at 7 ± 1.5%; in [10] (Unstimulated MM6 cells), 6 ± 1.0%; in data set [11] (MM6 cells stimulated with LPS) it was 8 ± 2.0%; in [11] (Unstimulated MM6 cells), 7 ± 1.5%; in data set [12] (MM6 cells stimulated with LPS), 3 ± 1.0%; in [12] (Unstimulated MM6 cells) it was 4 ± 2.0%.

Values taken from patent publication US9457062B2, “Chaperonin 10-induced immunomodulation” (CBIO LIMITED, priority 2005, dated 2016).
